Measured values: patent US11753411B2, “Substituted pyrazolo[1,5-a]pyrimidines as TYK2 pseudokinase ligands” (Ventyx Biosciences, Inc., priority 2019, dated 2023)

Test system: IFN-a/Jak1 Tyk2
Experiment: Co-stimulation assay in lysed whole blood: IFNa (JAK1/TYK2) stimulated STAT1 phosphorylation
Format: cell-based
Conditions: Homo sapiens, 20 min, 100 ng/mL IFNa (with 10 ng/mL GM-CSF), pSTAT by flow cytometry
In short: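 Lysed human whole blood (RBC-lysed, resuspended in cRPMI) pre-incubated with compound 1 h at 37 °C, then stimulated 20 min with IFNa 100 ng/mL plus GM-CSF 10 ng/mL (final). Fixed, permeabilised, stained for pSTAT1 (PE) and pSTAT5 (AF488); flow cytometry read-out, ≥5,000–10,000 cells acquired.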

Row | Structure (SMILES) | IC50 [µM]
1 | CNc1cc(Nc2cccc3occc23)nc2c(NC(=O)N[C@@H]3C[C@@H]3F)cnn12 [Compound 50, 1-(5-(benzofuran-4-ylamino)-7-(methylamino)pyrazolo[1,5-a]pyrimidin-3-yl)-3-((1R,2S)-2-fluorocyclopropyl)urea] | < 1
2 | CNC(=O)Nc1cnn2c(NC)cc(Nc3cc(C#N)cc4c3OCCO4)nc12 [Compound 83, 1-(5-((7-cyano-2,3-dihydrobenzo[b][1,4]dioxin-5-yl)amino)-7-(methylamino)pyrazolo[1,5-a]pyrimidin-3-yl)-3-methylurea] | < 1
3 | CNC(=O)Nc1cnn2c(NC)cc(Nc3ccccc3OC(F)(F)F)nc12 [Compound 168, 1-methyl-3-(7-(methylamino)-5-((2-(trifluoromethoxy)phenyl)amino)pyrazolo[1,5-a]pyrimidin-3-yl)urea] | 1 to 10
4 | CNc1cc(-c2cn(C3CCOCC3)c3ncccc23)nc2c(NC(=O)N[C@H]3CC[C@H]3O)cnn12 [Compound 56, 1-((1S,2R)-2-hydroxycyclobutyl)-3-(7-(methylamino)-5-(1-(tetrahydro-2H-pyran-4-yl)-1H-pyrrolo[2,3-b]pyridin-3-yl)pyrazolo[1,5-a]pyrimidin-3-yl)urea] | ≥ 10
5 | CNc1cc(Nc2cccc3c2OCCO3)nc2c(NC(=O)NCC3CC3)cnn12 [Compound 103, 1-(cyclopropylmethyl)-3-(5-((2,3-dihydrobenzo[b][1,4]dioxin-5-yl)amino)-7-(methylamino)pyrazolo[1,5-a]pyrimidin-3-yl)urea] | 1 to 10
6 | CNc1cc(Nc2cc(Cl)cc3c2OCCO3)nc2c(NC(=O)NC3CC3)cnn12 [Compound 85, 1-(5-((7-chloro-2,3-dihydrobenzo[b][1,4]dioxin-5-yl)amino)-7-(methylamino)pyrazolo[1,5-a]pyrimidin-3-yl)-3-cyclopropylurea] | < 1
7 | CNC(=O)Nc1cnn2c(NC)cc(-c3cn(C(C)C)c4ncccc34)nc12 [Compound 72, 1-(5-(1-isopropyl-1H-pyrrolo[2,3-b]pyridin-3-yl)-7-(methylamino)pyrazolo[1,5-a]pyrimidin-3-yl)-3-methylurea] | < 1
8 | CNC(=O)Nc1cnn2c(NC)cc(Nc3cccc(OC)c3)nc12 [Compound 150, 1-(5-((3-methoxyphenyl)amino)-7-(methylamino)pyrazolo[1,5-a]pyrimidin-3-yl)-3-methylurea] | < 1
9 | CNc1cc(Nc2cccc3nccnc23)nc2c(NC(=O)NCC#N)cnn12 [Compound 132, 1-(cyanomethyl)-3-(7-(methylamino)-5-(quinoxalin-5-ylamino)pyrazolo[1,5-a]pyrimidin-3-yl)urea] | < 1
10 | CNC(=O)Nc1cnn2c(NC)cc(Nc3ccc(OC)cc3)nc12 [Compound 151, 1-(5-((4-methoxyphenyl)amino)-7-(methylamino)pyrazolo[1,5-a]pyrimidin-3-yl)-3-methylurea] | 1 to 10
11 | CNc1cc(Nc2cccc3c2OCCO3)nc2c(NC(=O)NCC(F)F)cnn12 [Compound 134, 1-(2,2-difluoroethyl)-3-(5-((2,3-dihydrobenzo[b][1,4]dioxin-5-yl)amino)-7-(methylamino)pyrazolo[1,5-a]pyrimidin-3-yl)urea] | 1 to 10
12 | CNc1cc(Nc2cc(C(F)(F)F)cc3c2OCCO3)nc2c(NC(=O)NC3CC3)cnn12 [Compound 82, 1-cyclopropyl-3-(7-(methylamino)-5-((7-(trifluoromethyl)-2,3-dihydrobenzo[b][1,4]dioxin-5-yl)amino)pyrazolo[1,5-a]pyrimidin-3-yl)urea] | 1 to 10

Next, values leading:

Row | IC50 [µM] | Structure (SMILES)
13 | < 1 | CNc1cc(Nc2cccc3c2OCCO3)nc2c(NC(=O)NCCOC)cnn12 [Compound 112, 1-(5-((2,3-dihydrobenzo[b][1,4]dioxin-5-yl)amino)-7-(methylamino)pyrazolo[1,5-a]pyrimidin-3-yl)-3-(2-methoxyethyl)urea]
14 | < 1 | CNc1cc(Nc2cc(C)cc(C)c2)nc2c(NC(=O)NCC#N)cnn12 [Compound 128, 1-(cyanomethyl)-3-(5-((3,5-dimethylphenyl)amino)-7-(methylamino)pyrazolo[1,5-a]pyrimidin-3-yl)urea]
15 | < 1 | CNc1cc(Nc2cc(F)cc3c2OCCO3)nc2c(NC(=O)NCC(N)=O)cnn12 [Compound 118, 2-(3-(5-((7-fluoro-2,3-dihydrobenzo[b][1,4]dioxin-5-yl)amino)-7-(methylamino)pyrazolo[1,5-a]pyrimidin-3-yl)ureido)acetamide]
16 | 1 to 10 | CNC(=O)Nc1cnn2c(NC)cc(Nc3cccc4c3NC(=O)CO4)nc12 [Compound 95, 1-methyl-3-(7-(methylamino)-5-((3-oxo-3,4-dihydro-2H-benzo[b][1,4]oxazin-5-yl)amino)pyrazolo[1,5-a]pyrimidin-3-yl)urea]
17 | 1 to 10 | CNc1cc(Nc2cccc3c2OCCO3)nc2c(NC(=O)NCC(C)(C)CO)cnn12 [Compound 141, 1-(5-((2,3-dihydrobenzo[b][1,4]dioxin-5-yl)amino)-7-(methylamino)pyrazolo[1,5-a]pyrimidin-3-yl)-3-(3-hydroxy-2,2-dimethylpropyl)urea]
18 | ≥ 10 | CNc1cc(Nc2cccc3c2OCCO3)nc2c(NC(=O)N[C@@H]3C[C@@H]3F)c(C)nn12 [Compound 172, 1-(5-((2,3-dihydrobenzo[b][1,4]dioxin-5-yl)amino)-2-methyl-7-(methylamino)pyrazolo[1,5-a]pyrimidin-3-yl)-3-((1R,2S)-2-fluorocyclopropyl)urea]
19 | ≥ 10 | CNc1cc(Nc2cccc3c2OCCO3)nc2c(NC(=O)NC3CC3O)cnn12 (stereo not drawn) [Compound 32, 1-(5-((2,3-dihydrobenzo[b][1,4]dioxin-5-yl)amino)-7-(methylamino)pyrazolo[1,5-a]pyrimidin-3-yl)-3-(2-hydroxycyclopropyl)urea]
20 | < 1 | CNc1cc(Nc2cc(F)cc3c2OCCO3)nc2c(NC(=O)N[C@H]3C[C@@H]3F)cnn12 [Compound 41, 1-(5-((7-fluoro-2,3-dihydrobenzo[b][1,4]dioxin-5-yl)amino)-7-(methylamino)pyrazolo[1,5-a]pyrimidin-3-yl)-3-((1S,2S)-2-fluorocyclopropyl)urea]
21 | ≥ 10 | CNc1cc(Nc2c(F)ccc3c2OCCO3)nc2c(NC(=O)N[C@@H]3C[C@@H]3F)cnn12 [Compound 175, 1-(5-((6-fluoro-2,3-dihydrobenzo[b][1,4]dioxin-5-yl)amino)-7-(methylamino)pyrazolo[1,5-a]pyrimidin-3-yl)-3-((1R,2S)-2-fluorocyclopropyl)urea]
22 | ≥ 10 | CNc1cc(Nc2cc(C)cc(C)c2)nc2c(NC(=O)N[C@@H]3C[C@@H]3F)cnn12 [Compound 60, 1-(5-((3,5-dimethylphenyl)amino)-7-(methylamino)pyrazolo[1,5-a]pyrimidin-3-yl)-3-((1R,2S)-2-fluorocyclopropyl)urea]
23 | ≥ 10 | CNC(=O)Nc1cnn2c(NC)cc(N(C)c3ccccc3)nc12 [Compound 159, 1-methyl-3-(5-(methyl(phenyl)amino)-7-(methylamino)pyrazolo[1,5-a]pyrimidin-3-yl)urea]
24 | < 1 | CNc1cc(Nc2cccc3c2OCCO3)nc2c(NC(=O)NCC3(C#N)CC3)cnn12 [Compound 138, 1-((1-cyanocyclopropyl)methyl)-3-(5-((2,3-dihydrobenzo[b][1,4]dioxin-5-yl)amino)-7-(methylamino)pyrazolo[1,5-a]pyrimidin-3-yl)urea]
